Experimental data from the SangsterLogP compilation.

SMILES	logP
O=C(CCl)N(Cc1ccccc1)c1ccc(Cl)cc1	4.09
CCOC(=O)CN(C(=O)CCl)c1ccc(Cl)cc1	2.15
COP(=S)(OC)SCC(=O)N(Cc1ccccc1)c1ccccc1	3.13
CCOC(=O)CN(C(=O)CSP(=S)(OC)OC)c1ccccc1	1.19
CCOC(=O)[C@H](C)N(C(=O)CCl)c1ccc(Cl)cc1	2.75
CCN(C(=O)CCl)c1ccccc1	2.26
CCOC(=O)CN(C(=O)CSP(=S)(OC)OC)c1ccccc1Cl	2.42
CCN(C(=O)CSP(=S)(OC)OC)c1ccc(C)cc1	2.81
C=CCN(C(=O)CCl)c1ccc(C)cc1	2.92
CCOP(=S)(Oc1ccc(Cl)cc1Cl)SCC(=O)N(CC)c1ccc(C)cc1 (stereo not given)	2.82
CCOP(=S)(Oc1ccc(Cl)cc1Cl)SCC(=O)N(CC)c1ccccc1C (stereo not given)	2.82
CCCN(C(=O)CCl)c1ccc(Cl)cc1	3.62
CCOC(=O)CN(C(=O)CCl)c1cccc(Cl)c1	2.42
CCOC(=O)CN(C(=O)CSP(=S)(OC)OC)c1ccc(Cl)cc1	2.15
CCOC(=O)[C@H](C)N(C(=O)CCl)c1ccccc1	1.79
C=CCN(C(=O)CCl)c1ccc(Cl)cc1	3.19
CCOC(=O)C(C)N(C(=O)CSP(=S)(OC)OC)c1ccccc1 (stereo not given)	1.79
CCOC(=O)C(C)N(C(=O)CSP(=S)(OC)OC)c1ccc(Cl)cc1 (stereo not given)	2.75
CCOC(=O)C(C)N(C(=O)CSP(=S)(OC)OC)c1cccc(Cl)c1 (stereo not given)	3.68
CCN(C(=O)CSP(=S)(OC)OC)c1ccccc1C	2.82
C=CCN(C(=O)CSP(=S)(OC)OC)c1ccccc1C	2.93
CCN(C(=O)CCl)c1ccccc1C	2.82
C=CCN(C(=O)CSP(=S)(OC)OC)c1ccc(C)cc1	2.92
COP(=S)(OC)SCC(=O)N(Cc1ccccc1)c1ccc(Cl)cc1	4.09
C=CCN(C(=O)CCl)c1cccc(Cl)c1	3.38
CCN(C(=O)CSP(=S)(OC)OC)c1ccccc1	2.26
C=CCN(C(=O)CSP(=S)(OC)OC)c1ccc(Cl)cc1	3.19
COP(=S)(OC)SCC(=O)N(c1ccccc1)C(C)C	2.5
O=C(CCl)N(Cc1ccccc1)c1ccccc1	3.13
O=C(CCl)N(Cc1ccccc1)c1cccc(Cl)c1	4.28
